Among the data in patent publication US8258151B2, “3-aminoimidazo [1,2-A] pyridine derivatives as SGLT inhibitors” (Merck Patent GmbH, priority 2006, dated 2012) are IC50 values, retold here.

In one experiment the target is T1, SGLT2 (Homo sapiens, UniProt P31639).
T1 construct: expressed in transfected cells
T1 sequence (P31639 1-672): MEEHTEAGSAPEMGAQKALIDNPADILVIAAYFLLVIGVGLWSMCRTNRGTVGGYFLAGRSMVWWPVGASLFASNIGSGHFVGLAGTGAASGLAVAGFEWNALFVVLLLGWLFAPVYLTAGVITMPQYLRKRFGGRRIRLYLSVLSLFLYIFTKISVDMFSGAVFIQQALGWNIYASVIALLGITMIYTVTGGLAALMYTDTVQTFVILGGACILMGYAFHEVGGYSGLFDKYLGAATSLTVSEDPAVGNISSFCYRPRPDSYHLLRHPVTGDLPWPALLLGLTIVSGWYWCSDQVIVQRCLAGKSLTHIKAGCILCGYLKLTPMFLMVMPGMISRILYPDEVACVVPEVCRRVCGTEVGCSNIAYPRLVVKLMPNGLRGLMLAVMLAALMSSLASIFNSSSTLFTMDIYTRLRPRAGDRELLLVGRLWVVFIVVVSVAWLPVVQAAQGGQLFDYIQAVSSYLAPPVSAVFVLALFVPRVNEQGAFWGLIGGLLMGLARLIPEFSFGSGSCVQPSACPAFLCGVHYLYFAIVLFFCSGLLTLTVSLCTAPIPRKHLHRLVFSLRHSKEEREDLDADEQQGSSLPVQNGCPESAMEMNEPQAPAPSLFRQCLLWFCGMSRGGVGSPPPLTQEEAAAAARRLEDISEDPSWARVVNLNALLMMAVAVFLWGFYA
As to the kind of experiment: SGLT2 activity measurement: 14C-AMG uptake in BHK cells transfected with SGLT2. Type of experiment: cell-based. Particulars: AMG 2 mM, 37° C., 90 min. The method in brief: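 BHK21 cells stably expressing human SGLT2 took up 14C-AMG (added as 2 mM solution) ± compound for 90 min at 37 °C in Na+-containing HEPES/Tris buffer, pH 7.4. Uptake was measured by scintillation counting after lysis. Non-specific uptake was defined in sodium-free sucrose buffer.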

The target in the next experiment is T2, SGLT1 (Homo sapiens, UniProt P13866).
T2 construct: expressed in transfected cells
T2 sequence (P13866 1-664): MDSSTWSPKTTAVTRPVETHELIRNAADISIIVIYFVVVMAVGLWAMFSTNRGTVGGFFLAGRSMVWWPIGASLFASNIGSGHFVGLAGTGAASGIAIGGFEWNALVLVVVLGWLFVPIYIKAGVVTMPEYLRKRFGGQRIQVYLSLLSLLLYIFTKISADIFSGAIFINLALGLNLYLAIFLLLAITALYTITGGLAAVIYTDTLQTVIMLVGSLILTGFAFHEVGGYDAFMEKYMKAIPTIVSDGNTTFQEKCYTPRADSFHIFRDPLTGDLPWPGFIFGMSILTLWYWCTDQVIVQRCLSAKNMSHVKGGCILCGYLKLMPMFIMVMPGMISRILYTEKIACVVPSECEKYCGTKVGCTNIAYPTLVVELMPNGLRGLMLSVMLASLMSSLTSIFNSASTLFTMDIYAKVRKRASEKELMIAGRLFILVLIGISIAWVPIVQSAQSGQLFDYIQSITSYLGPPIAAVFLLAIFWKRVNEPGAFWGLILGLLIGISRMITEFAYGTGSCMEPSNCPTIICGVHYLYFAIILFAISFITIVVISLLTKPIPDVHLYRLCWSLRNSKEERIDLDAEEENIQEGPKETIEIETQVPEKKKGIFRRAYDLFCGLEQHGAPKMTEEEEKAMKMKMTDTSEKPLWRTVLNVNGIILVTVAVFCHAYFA
As to the kind of experiment: SGLT1 activity measurement: 14C-AMG uptake in BHK cells transfected with SGLT1. Type of experiment: cell-based. Particulars: AMG 50 μM, 37° C., 90 min. The method in brief: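 BHK21 cells stably transfected with human SLC5A1 were incubated with 14C-AMG (added solution at 50 μM) ± compound for 90 min at 37 °C. The buffer was 140 mM NaCl, HEPES/Tris, pH 7.4. Lysed-cell radioactivity was counted by scintillation, and non-specific uptake was measured in sodium-free sucrose buffer.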

Usually IC50 stands for the concentration at which inhibition is half-maximal. Low readings indicate greater potency, high ones weaker potency. Consider `COc1ccc(-c2nc3ccc(F)cn3c2Nc2c(C)cccc2C)c(OCC(N)=O)c1` [Compound A211, 2-[2-(Aminocarbonylmethoxy)-4-methoxy-phenyl]-3-(2,6-dimethylphenylamino)-6-fluoro-imidazo[1,2-a]pyridine], for which the values for the IC50 at SGLT2 and against SGLT1 were 0.01 to 1 µM and over 10 µM, respectively.
Take `COc1ccc(-c2nc3ccc(F)cn3c2Nc2c(C)cc(F)cc2C)c(OCC(N)=O)c1` [Compound A212, 2-[2-(Aminocarbonylmethoxy)-4-methoxy-phenyl]-3-(2,6-dimethyl-4-fluorophenylamino)-6-fluoroimidazo[1,2-a]pyridine]: the IC50 at SGLT2 was 0.01 to 1 µM; against SGLT1, over 10 µM.
For the molecule `Cc1cccc(C)c1Nc1c(-c2c(C)cc(OS(=O)(=O)N(C)C)cc2OCC(N)=O)nc2ccc(F)cn12` [Compound A213], the values for the IC50 at SGLT2 and against SGLT1 were 0.01 to 1 µM and over 10 µM, respectively.
The matching figures for `COc1cc(C)c(-c2nc3ccc(F)cn3c2Nc2c(C)cccc2OC)c(OCC(N)=O)c1` [Compound A214, 2-[2-(Aminocarbonylmethoxy)-4-methoxy-6-methylphenyl]-3-(2-methoxy-6-methylphenyl-amino)-6-fluoroimidazo[1,2-a]pyridine]: 0.01 to 1 µM and over 10 µM.
For the molecule `CCc1cc(OC)cc(OCC(N)=O)c1-c1nc2ccc(F)cn2c1Nc1c(C)cccc1OC` [Compound A215, 2-[2-(Aminocarbonylmethoxy)-4-methoxy-6-ethylphenyl]-3-(2-methoxy-6-methylphenyl-amino)-6-fluoroimidazo[1,2-a]pyridine], the IC50 was 0.01 to 1 µM on SGLT2 and over 10 µM against SGLT1.
The matching figures for `CCc1cc(OCC(O)CO)cc(OCC(N)=O)c1-c1nc2ccc(F)cn2c1Nc1c(C)cccc1C` (stereo not drawn) [Compound A216, 2-[2-(Aminocarbonylmethoxy)-4-(2,3-dihydroxy-propoxy)-6-ethylphenyl]-3-(2,6-dimethylphenyl-amino)-6-fluoroimidazo[1,2-a]pyridine]: 0.01 to 1 µM and over 10 µM.
The matching figures for `CCc1cc(OC)cc(OCC(N)=O)c1-c1nc2ccc(F)cn2c1Nc1c(C)ccc(Cl)c1C` [Compound A217, 2-[2-(Aminocarbonylmethoxy)-4-methoxy-6-ethylphenyl]-3-(3-chloro-2,6-dimethylphenyl-amino)-6-fluoroimidazo[1,2-a]pyridine]: 0.01 to 1 µM and 1 to 10 µM.
Consider `COc1cc(C)c(-c2nc3ccc(F)cn3c2Nc2c(C)ccc(Cl)c2C)c(OCC(N)=O)c1` [Compound A218, 2-[2-(Aminocarbonylmethoxy)-4-methoxy-6-methylphenyl]-3-(3-chloro-2,6-dimethylphenyl-amino)-6-fluoroimidazo[1,2-a]pyridine], for which the IC50 at SGLT2 was 0.01 to 1 µM; against SGLT1, 1 to 10 µM.
Consider `COc1cc(C)c(-c2nc3ccc(F)cn3c2Nc2c(F)cccc2F)c(OCC(N)=O)c1` [Compound A219, 2-[2-(Aminocarbonylmethoxy)-4-methoxy-6-methylphenyl]-3-(2,6-difluorophenylamino)-6-fluoroimidazo[1,2-a]pyridine], for which the half-maximal inhibitory concentration (IC50) lay in the range of 0.01 to 1 µM against SGLT2 and 1 to 10 µM against SGLT1.
In the case of `CCc1cc(OC)cc(OCC(N)=O)c1-c1nc2ccc(F)cn2c1Nc1c(F)cccc1F` [Compound A220, 2-[2-(Aminocarbonylmethoxy)-4-methoxy-6-ethylphenyl]-3-(2,6-difluorophenylamino)-6-fluoroimidazo[1,2-a]pyridine], the IC50 lay within 0.01 to 1 µM against SGLT2 and 1 to 10 µM against SGLT1.
For `CCc1cc(OC)cc(OCC(N)=O)c1-c1nc2c(F)cc(F)cn2c1Nc1c(C)cccc1C` [Compound A221, 2-[2-(Aminocarbonylmethoxy)-4-methoxy-6-ethylphenyl]-3-(2,6-dimethylphenylamino)-6,8-difluoroimidazo[1,2-a]pyridine], in that order: 0.01 to 1 µM and 1 to 10 µM.
Turning to `COc1cc(C)c(-c2nc3ccc(F)cn3c2Nc2c(C)cc(Cl)cc2C)c(OCC(N)=O)c1` [Compound A222, 2-[2-(Aminocarbonylmethoxy)-4-methoxy-6-methylphenyl]-3-(4-chloro-2,6-dimethylphenyl-amino)-6-fluoroimidazo[1,2-a]pyridine], the IC50 against SGLT2 was 0.01 to 1 µM; on SGLT1 it was 1 to 10 µM.
With `COc1cc(C)c(-c2nc3ccccn3c2Nc2c(Cl)cc(F)cc2Cl)c(OCC(N)=O)c1` [Compound A224, 2-[2-(Aminocarbonylmethoxy)-4-methoxy-6-methylphenyl]-3-(4-fluoro-2,6-dichlorophenyl-amino)imidazo[1,2-a]pyridine], the IC50 against SGLT2 fell in the range of 0.01 to 1 µM; on SGLT1 it was 1 to 10 µM.
With `COc1cc(C)c(-c2nc3c(F)cc(F)cn3c2Nc2c(Cl)cc(F)cc2Cl)c(OCC(N)=O)c1` [Compound A225, 2-[2-(Aminocarbonylmethoxy)-4-methoxy-6-methylphenyl]-3-(4-fluoro-2,6-dichlorophenyl-amino)-6,8-difluoroimidazo[1,2-a]pyridine], the IC50 is 0.01 to 1 µM against SGLT2 and 1 to 10 µM against SGLT1.
As for `COc1cc(C)c(-c2nc3c(F)cc(F)cn3c2Nc2c(Cl)cccc2Cl)c(OCC(N)=O)c1` [Compound A226, 2-[2-(Aminocarbonylmethoxy)-4-methoxy-6-methylphenyl]-3-(2,6-dichlorophenylamino)-6,8-difluoroimidazo[1,2-a]pyridine], the results for the IC50 against SGLT2 and against SGLT1 were 0.01 to 1 µM and 1 to 10 µM, respectively.
`CCc1cc(OC)cc(OCC(N)=O)c1-c1nc2c(F)cc(F)c(N)n2c1Nc1c(C)cccc1C` [Compound A227, 2-[2-(Aminocarbonylmethoxy)-4-methoxy-6-ethylphenyl]-3-(2,6-dimethylphenylamino)-5-amino-6,8-difluoroimidazo[1,2-a]pyridine]: the IC50 on SGLT2 was 0.01 to 1 µM; against SGLT1, 1 to 10 µM.
As to `CCc1cc(OS(=O)(=O)N(C)C)cc(OCC(N)=O)c1-c1nc2ccc(F)cn2c1Nc1c(C)cccc1C` [Compound A228, 2-[2-(Aminocarbonylmethoxy)-4-dimethyl-sulfamoyloxy-6-ethylphenyl]-3-(2,6-dimethyl-phenylamino)-6-fluoroimidazo[1,2-a]pyridine], the IC50 was 0.01 to 1 µM at SGLT2 and over 10 µM on SGLT1.
For `COc1cc(C)c(-c2nc3ccc(F)cn3c2Nc2ccc(F)cc2F)c(OCC(N)=O)c1` [Compound A229, 2-[2-(Aminocarbonylmethoxy)-4-methoxy-6-methylphenyl]-3-(2,4-difluorophenylamino)-6-fluoroimidazo[1,2-a]pyridine], in that order: 1 to 10 µM and over 10 µM.
The matching figures for `CCc1cc(OCC(N)=O)cc(OCC(N)=O)c1-c1nc2ccc(F)cn2c1Nc1c(C)cccc1C` [Compound A230, 2-[2-(Aminocarbonylmethoxy)-4-(amino-carbonylmethoxy)-6-ethylphenyl]-3-(2,6-dimethylphenylamino)-6-fluoroimidazo[1,2-a]-pyridine]: 0.01 to 1 µM and over 10 µM.
For `COc1cc(OCC(N)=O)c(-c2nc3ccc(F)cn3c2Nc2c(C)cccc2C)c(C)c1Cl` [Compound A231, 2-[2-(Aminocarbonylmethoxy)-5-chloro-4-methoxy-6-methylphenyl]-3-(2,6-dimethylphenyl-amino)-6-fluoroimidazo[1,2-a]pyridine], in that order: 0.01 to 1 µM and 1 to 10 µM.
`COc1cc(C)c(-c2nc3ccc(F)cn3c2Nc2c(C)cccc2[N+](=O)[O-])c(OCC(N)=O)c1` [Compound A232, 2-[2-(Aminocarbonylmethoxy)-4-methoxy-6-methylphenyl]-3-(2-methyl-6-nitrophenylamino)-6-fluoroimidazo[1,2-a]pyridine]: the values for the IC50 against SGLT2 and at SGLT1 were 0.01 to 1 µM and 1 to 10 µM, respectively.
